One series concerns the target PDE4. The series is described as follows: Measurement of PDE4 enzyme inhibiting action. It counts as biochemical, human. Conditions: PDE4 enzyme solution from polymorphonuclear leukocytes of healthy volunteer; 0.2 μM [3H]cAMP, 30° C., 30 minutes; read-out: PDE4 inhibition IC50 value. Here is the method: Preparation of a PDE4 enzyme solution was carried out according to the method of Cooper et al. (Br. J. Pharmacol., 126, 1863 (1999)) by modifying a part thereof. Heparin-treated peripheral blood from healthy volunteer was stratified by a blood cell separating solution (Polymorphprep™, available from AXIS-SHIELD PoC AS CO.), and centrifugation was carried out at 20° C. with 1900 rpm for 27 minutes to obtain polymorphonuclear leukocytes. The polymorphonuclear leukocytes were washed with a Hanks' balanced salt solution, then, a mixed solution comprising 70% of 10 mM 3-morpholinopropane sulfonic acid buffer solution (pH 7.4) containing 1 mM EGTA, 1 mM magnesium acetate and 5 mM dithiothreitol and 30% of ethylene glycol was added thereto to dissolve the same under ice-cooling, and the obtained cell dissolved solution was used as a PDE4 enzyme solution.
Measurement of PDE4 activity was carried out according to the method of Owens, et al. (Biochem. J., 326, 53 (1997)) by modifying a part thereof. The PDE4 enzyme solution was incubated with a compound to be tested dissolved in dimethylsulfoxide in 80 mM Tris-HCl buffer solution (pH 7.4) containing 0.2 μM [^3H] cAMP, 0.1 mM cGMP, 20 mM MgCl2 and 12 mM 2-mercaptoethanol at 30° C. for 30 minutes. Trifluoroacetic acid (final concentration: 1%) was added to the mixture to stop the reaction, and the reaction mixture was added to neutral alumina column (BOND ELUT™, available from VARIAN INC.). After the column was washed with 100 mM Tris-HCl buffer solution (pH 8.0), [^3H] 5′-AMP was eluted with 2N sodium hydroxide solution, and radioactivity of the eluent was measured by a liquid scintillation analyzer.
A concentration of the compound to be tested which inhibits 50% of PDE4 activity was calculated from the relation between the concentration of the compound to be tested which had been added and PDE4 activity as an IC50 value.

Counter-ions that a name gives are not always drawn.

What is called IC50 is the point on the concentration scale where inhibition reaches its midpoint. By melting point is commonly meant the temperature, or range, at which the solid turns liquid. Regarding `O=c1[nH]ncc2[nH]c(-c3ccc(OC(F)F)c(OC4CC4)c3)c(Br)c12` [Example 3, 3-Bromo-2-(3-cyclopropoxy-4-difluoromethoxyphenyl)-1,5-dihydropyrrolo[2,3-d]pyridazin-4-one], the melting point is 267 to 270 °C (dec.). Further, the IC50 at PDE4 came to 5.2 nM.

With `CCCCc1c(-c2ccc(OC(F)F)c(OC3CC3)c2)[nH]c2cn[nH]c(=O)c12` [Example 8, 3-Butyl-2-(3-cyclopropoxy-4-difluoromethoxyphenyl)-1,5-dihydropyrrolo[2,3-d]pyridazin-4-one], the melting point lay within 192 to 194 °C. The IC50 at PDE4 worked out at 1.7 nM.

`CC(C)Cc1c(-c2ccc(OC(F)F)c(OC3CC3)c2)[nH]c2cn[nH]c(=O)c12` [Example 9, 2-(3-Cyclopropoxy-4-difluoromethoxyphenyl)-3-isobutyl-1,5-dihydropyrrolo[2,3-d]pyridazin-4-one] came in with a melting point of 239 to 241 °C. For the same molecule, the IC50 on PDE4 came out at 1.8 nM.

As to `O=c1[nH]ncc2[nH]c(-c3ccc(OC(F)F)c(OC4CC4)c3)c(COC3CCC3)c12` [Example 13, 3-Cyclobutoxymethyl-2-(3-cyclopropoxy-4-difluoromethoxyphenyl)-1,5-dihydropyrrolo[2,3-d]pyridazin-4-one], the melting point is 95 to 100 °C. Moreover, the IC50 at PDE4 was 0.65 nM.

Molecule `O=c1[nH]ncc2[nH]c(-c3ccc(OC(F)F)c(OC4CC4)c3)c(C3CC3)c12` [Example 14, 2-(3-Cyclopropoxy-4-difluoromethoxyphenyl)-3-cyclopropyl-1,5-dihydropyrrolo[2,3-d]pyridazin-4-one] gave a melting point of 248 to 249 °C. The IC50 on PDE4 was found to be 4.7 nM.

For `C#Cc1c(-c2ccc(OC(F)F)c(OC3CC3)c2)[nH]c2cn[nH]c(=O)c12` [Example 16, 2-(3-Cyclopropoxy-4-difluoromethoxyphenyl)-3-ethynyl-1,5-dihydropyrrolo[2,3-d]pyridazin-4-one], the melting point was > 300 °C. The half-maximal inhibitory concentration (IC50) at PDE4 amounted to 13 nM.

For the molecule `O=c1[nH]ncc2[nH]c(-c3ccc(OC(F)F)c(OC4CC4)c3)c(Cc3ccccc3)c12` [Example 19, 3-Benzyl-2-(3-cyclopropoxy-4-difluoromethoxyphenyl)-1,5-dihydropyrrolo[2,3-d]pyridazin-4-one], the melting point was 215 to 217 °C. Further, the IC50 on PDE4 came to 0.18 nM.

With `O=c1[nH]ncc2[nH]c(-c3ccc(OC(F)F)c(OC4CC4)c3)c(C(O)c3ccccc3)c12` (centres unmarked) [Example 20, 2-(3-Cyclopropoxy-4-difluoromethoxyphenyl)-3-hydroxyphenylmethyl-1,5-dihydropyrrolo[2,3-d]pyridazin-4-one], the 50% inhibitory concentration (IC50) at PDE4 was 0.23 nM.

Molecule `COc1ccc(Cc2c(-c3ccc(OC(F)F)c(OC4CC4)c3)[nH]c3cn[nH]c(=O)c23)cn1` [Example 29, 2-(3-Cyclopropoxy-4-difluoromethoxyphenyl)-3-(6-methoxy-3-pyridylmethyl)-1,5-dihydropyrrolo[2,3-d]pyridazin-4-one] came in with a melting point of 220 to 221 °C. For the same molecule, on PDE4, the IC50 worked out at 0.57 nM.

As for `O=c1[nH]ncc2[nH]c(-c3ccc(OC(F)F)c(OC4CCC4)c3)cc12` [Example 31, 2-(3-Cyclobutoxy-4-difluoromethoxyphenyl)-1,5-dihydropyrrolo[2,3-d]pyridazin-4-one], the melting point fell in the range of 289 to 291 °C. In addition, the IC50 on PDE4 was 9.1 nM.

On to `O=c1[nH]ncc2[nH]c(-c3ccc(OC(F)F)c(OC4CCC4)c3)c(Br)c12` [Example 33, 3-Bromo-2-(3-cyclobutoxy-4-difluoromethoxyphenyl)-1,5-dihydropyrrolo[2,3-d]pyridazin-4-one], for which the melting point lay in the range of 234 to 238 °C. Besides, the IC50 at PDE4 worked out at 1.8 nM.

As for `O=c1[nH]ncc2[nH]c(-c3ccc(OC(F)F)c(OC4CCC4)c3)c(-c3ccccc3)c12` [Example 34, 2-(3-Cyclobutoxy-4-difluoromethoxyphenyl)-3-phenyl-1,5-dihydropyrrolo[2,3-d]pyridazin-4-one], the melting point is 280 to 284 °C. Further, the IC50 at PDE4 amounted to 8.7 nM.

`O=c1[nH]ncc2[nH]c(-c3ccc(OC(F)F)c(OCC4CC4)c3)c(Cl)c12` [Example 36, 3-Chloro-2-(3-cyclopropylmethoxy-4-difluoromethoxyphenyl)-1,5-dihydropyrrolo[2,3-d]pyridazin-4-one]: the melting point is 258 to 260 °C. The concentration for half-maximal inhibition (IC50) on PDE4 stood at 7.9 nM.

On to `CCc1c(-c2ccc(OC(F)F)c(OCC3CC3)c2)[nH]c2cn[nH]c(=O)c12` [Example 37, 2-(3-Cyclopropylmethoxy-4-difluoromethoxyphenyl)-3-ethyl-1,5-dihydropyrrolo[2,3-d]pyridazin-4-one HCl adduct], for which, on PDE4, the IC50 amounted to 6.6 nM.

The molecule `O=c1[nH]ncc2[nH]c(-c3ccc(OC(F)F)c(OCC4CC4)c3)c(-c3ccccc3)c12` [Example 38, 2-(3-Cyclopropylmethoxy-4-difluoromethoxyphenyl)-3-phenyl-1,5-dihydropyrrolo[2,3-d]pyridazin-4-one] yielded a melting point of 249 to 251 °C. Also, the IC50 at PDE4 was 7.1 nM.

For `CC(C)Oc1cc(-c2[nH]c3cn[nH]c(=O)c3c2Br)ccc1OC(F)F` [Example 41, 3-Bromo-2-(4-difluoromethoxy-3-isopropoxyphenyl)-1,5-dihydropyrrolo[2,3-d]pyridazin-4-one], the IC50 on PDE4 came out at 9.9 nM.

Turning to `CCCCc1c(-c2ccc(OC)c(OC3CC3)c2)[nH]c2cn[nH]c(=O)c12` [Example 44, 3-Butyl-2-(3-cyclopropoxy-4-methoxyphenyl)-1,5-dihydropyrrolo[2,3-d]pyridazin-4-one], the melting point lay within 198 to 200 °C. Moreover, at PDE4, the IC50 was 2.6 nM.

With `O=c1[nH]ncc2[nH]c(-c3ccc(OC(F)F)c4c3CC3(CCCC3)O4)cc12` [Example 49, 2-(7-Difluoromethoxy-2,3-dihydrobenzofuran-2-spiro-1′-cyclopentan-4-yl)-1,5-dihydropyrrolo[2,3-d]pyridazin-4-one], the melting point was 290 to 295 °C. The IC50 at PDE4 came out at 3.5 nM.

`COc1ccc(-c2cc3c(=O)[nH]ncc3[nH]2)c2c1OC1(CCCC1)C2` [Example 50, 2-(2,3-Dihydro-7-methoxybenzofuran-2-spiro-1′-cyclopentan-4-yl)-1,5-dihydropyrrolo[2,3-d]pyridazin-4-one]: the melting point was 265 °C (dec.). On PDE4, the 50% inhibitory concentration (IC50) turned out to be 16 nM.

`Cc1c(-c2ccc(OC(F)F)c3c2C=CC(C)(C)O3)[nH]c2cn[nH]c(=O)c12` [Example 53, 2-(8-Difluoromethoxy-2,2-dimethyl-2H-chromen-5-yl)-3-methyl-1,5-dihydropyrrolo[2,3-d]pyridazin-4-one HCl adduct]: at PDE4, the half-inhibitory concentration (IC50) was determined as 17 nM.

In turn, `C#CCc1c(-c2ccc(OC(F)F)c(OC3CC3)c2)[nH]c2cn[nH]c(=O)c12` [Example 71, 2-(3-Cyclopropoxy-4-difluoromethoxyphenyl)-3-(2-propynyl)-1,5-dihydropyrrolo[2,3-d]pyridazin-4-one] had a melting point of 245 to 246 °C.

`C=CCc1c(-c2ccc(OC(F)F)c(OC3CC3)c2)[nH]c2cn[nH]c(=O)c12` [Example 74, 2-(3-Cyclopropoxy-4-difluoromethoxyphenyl)-3-(2-propenyl)-1,5-dihydropyrrolo[2,3-d]pyridazin-4-one]: the melting point was 176 to 179 °C.

Values taken from US8450319B2, “Pyrrolopyridazinone compound” (Ube Industries, Ltd., priority 2006, dated 2013).
